Converted amounts (≈) assume the structure as drawn. Read-outs that look alike come from different tables or passages of the source.
Key:
[1] = test system: Human lung fibroblast cells (ATCC CCL-171); assay: Cytotoxicity (MTT) assay; conditions: for % of survival cells compared to the untreated controls: 18 hr treatment
Method: Cellular toxicity was measured by a colorimetric assay that makes use of the tetrazolium salt, MTT. Human lung fibroblast cells (ATCC CCL-171) were plated in 96-well plates at 10^4 cells per well and incubated under 5% CO2 at 37° C. for 24 hr to allow adherence of cells to the plate. Test compounds were prepared as a stock solution at 1 mg/mL in 1% DMSO/water and diluted with water for the serial dilutions (500-7.8 μg/mL). Cells underwent a 18 hr treatment under 5% CO2 at 37° C. with experimental drugs. Corresponding controls received either no drug treatment or treatment with SDS (sodium dodecyl sulfate). The optical density of each sample was read on a microplate spectrophotometer reader at 600 nm and cell survival was expressed as a fraction of that of untreated controls. A drug is said cytotoxic when this fraction is ≦−30%

[2] = Stability in solution at pH 7 (HPLC purity over time); format: physicochemical; conditions: pH 7, 37° C.
Method: The stability of the aminoquinoline-cephalosporin_hybrid molecules given as examples was determined in solution at 37° C., at physiological pH (pH 7, phosphate buffer/acetonitrile, 75/25 v/v) and at acidic pH (pH 1, 0.1 M HCl/ethanol, 70/30 v/v) by high pressure liquid chromatography coupled to a UV-visible detector (Beckman Coulter ODS C18 column, 5 μm, 4.6×250 mm; eluents: A: 0.1% TFA, B: CH3CN/H2O 90/10 0.1% TFA, gradient: from 10% to 100% of B in 30 minutes, and then 100% of B for 10 minutes, flow rate 1 mL/minutes, λ=254 nm, volume injected: 10 μL).

[3] = test system: H. influenzae CIP 102514; assay: Antibacterial activity (MIC/MBC); format: cell-based, Haemophilus influenzae; conditions: Haemophilus influenzae, CIP102514
[4] = test system: S. pneumoniae PRSP CIP 104471; assay: Antibacterial activity (MIC/MBC); format: cell-based, Streptococcus pneumoniae; conditions: Streptococcus pneumoniae; for MIC: read-out: MIC
[5] = test system: Staphylococcus aureus MSSA CIP 4.83; assay: Antibacterial activity (MIC/MBC); format: cell-based; conditions: S. aureus MSSA CIP 4.83
[6] = test system: E. faecalis VRE CIP 104676; assay: Antibacterial activity (MIC/MBC); format: cell-based, Enterococcus faecalis; conditions: Enterococcus faecalis, E. faecalis VRE CIP 104676; for MIC: read-out: MIC
[7] = test system: S. pneumoniae PRSP clinical isolate; assay: Antibacterial activity (MIC/MBC); format: cell-based, Streptococcus pneumoniae; conditions: Streptococcus pneumoniae; for MIC: PRSP, read-out: MIC
[8] = Staphylococcus aureus, read-out: MBC
[9] = Staphylococcus aureus, read-out: MIC

With CCCCCCCCCCCCOS(=O)(=O)[O-].[Na+] [SDS, sodium dodecyl sulfate, reference compound] the “% of survival cells compared to the untreated controls” value (from here on “% of survival cells”) ([1]; 7.8 μg/mL) was “+2.1%”, the “% of survival cells” value ([1]; 15.6 μg/mL) was −7.0% and the “% of survival cells” value ([1]; 31.2 μg/mL) was −16.4%. The “% of survival cells” value ([1]; 62.5 μg/mL) was −77.9%, the “% of survival cells” value ([1]; 125 μg/mL) was −81.2% and the “% of survival cells” value ([1]; 250 μg/mL) was −81.1%. For the same molecule, the “% of survival cells” value ([1]; 500 μg/mL) was −83.0%, the “concentration at which the threshold of cytotoxicity (−30%) is exceeded” value ([1]; human, 18 hr) was no less than 31200 ng/mL and the “human lung fibroblast cells killed” value ([1]; human, 18 hr) was “more than 80%”.

In the case of CC(=O)OCC1=C(C(=O)O)N2C(=O)[C@@H](NC(=O)CNc3ccnc4cc(Cl)ccc34)[C@H]2[S+]([O-])C1.Cl (stereo partly drawn) [PA 1088, (6R,7R-3-Acetoxymethyl-7-[2-7-chloroquinolin-4-ylamino)acetylamino]-5,8-dioxo-5λ^4-thia-1-aza-bicyclo[4.2.0]oct-2-ene-2-carboxylic acid hydrochloride], the “Purity of the hybrid molecules (as a percentage) as a function of time (hours)” value ([2]; time 0 h) was 100%, the “Purity of the hybrid molecules (as a percentage) as a function of time (hours)” value ([2]; time 1 h) was 100% and the “Purity of the hybrid molecules (as a percentage) as a function of time (hours)” value ([2]; time 2 h) was 100%. The “Purity of the hybrid molecules (as a percentage) as a function of time (hours)” value ([2]; time 4 h) was 100% and the “Purity of the hybrid molecules (as a percentage) as a function of time (hours)” value ([2]; time 24 h) was 81%.

Work on CC(=O)OCC1=C(C(=O)O)N2C(=O)[C@@H](NC(=O)CCNc3ccnc4cc(Cl)ccc34)[C@H]2SC1 [PA 1037] yielded an MBC [3] of 25 µg/mL (≈ 49.5 µM), an MIC [3] of 6.25 µg/mL (≈ 12.4 µM) and an MBC [4] of 3.12 µg/mL (≈ 6.18 µM). For the same molecule, the MIC [4] was 1.56 µg/mL (≈ 3.09 µM), the MBC [5, 8] was greater than 50 µg/mL and the MIC [5, 9] was 0.39 µg/mL (≈ 0.772 µM). It also gave an MBC [6] of 25 µg/mL (≈ 49.5 µM), an MIC [6] of 6.25 µg/mL (≈ 12.4 µM) and an MBC [7] of 6.25 µg/mL (≈ 12.4 µM). The MIC [7] was 3.12 µg/mL (≈ 6.18 µM).

CC1(C)S[C@@H]2[C@H](NC(=O)Cc3ccccc3)C(=O)N2[C@H]1C(=O)O [Penicillin G, reference compound] gave an MBC [5] of 0.06 µg/mL (≈ 0.179 µM) and an MIC [5] of 0.008 µg/mL (≈ 0.0239 µM).

Work on CC(=O)OCC1=C(C(=O)O)N2C(=O)[C@@H](NC(=O)CCCNc3ccnc4cc(Cl)ccc34)[C@H]2SC1 [PA 1053, (6R,7R-3-Acetoxymethyl-7-[4-7-chloroquinolin-4-ylamino)-butyrylamino]-8-oxo-5-thia-1-aza-bicyclo[4.2.0]oct-2-ene-2-carboxylic acid] yielded an MBC [3] of 25 µg/mL (≈ 48.2 µM), an MIC [3] of 6.25 µg/mL (≈ 12 µM) and an MBC [4] of 3.12 µg/mL (≈ 6.01 µM). For the same molecule, the MIC [4] was 1.56 µg/mL (≈ 3.01 µM), the MBC [5, 8] was greater than 50 µg/mL and the MIC [5, 9] was 0.78 µg/mL (≈ 1.5 µM). The MBC [6] was greater than 50 µg/mL, the MIC [6] was 25 µg/mL (≈ 48.2 µM) and the MBC [7] was 6.25 µg/mL (≈ 12 µM). It also gave an MIC [7] of 3.12 µg/mL (≈ 6.01 µM).

With CC(=O)OCC1=C(C(=O)O)N2C(=O)[C@@H](NC(=O)CNc3ccnc4cc(Cl)ccc34)[C@H]2[S+]([O-])C1 (stereo partly drawn) [PA 1092, (6R,7R-3-Acetoxymethyl-7-[2-7-chloroquinolin-4-ylamino)acetylamino]-5,8-dioxo-5λ^1-thia-1-aza-bicyclo[4.2.0]oct-2-ene-2-carboxylic acid] the MBC [3] was 50 µg/mL (≈ 98.6 µM), the MIC [3] was 12.5 µg/mL (≈ 24.7 µM) and the MBC [4] was 3.12 µg/mL (≈ 6.15 µM). The MIC [4] was 1.56 µg/mL (≈ 3.08 µM), the MBC [5, 8] was greater than 50 µg/mL and the MIC [5, 9] was 12.5 µg/mL (≈ 24.7 µM). It also gave an MBC [6] greater than 50 µg/mL, an MIC [6] greater than 50 µg/mL and an MBC [7] of 12.5 µg/mL (≈ 24.7 µM). The MIC [7] was 6.25 µg/mL (≈ 12.3 µM).

— patent publication US20070060558A1 (PALUMED S.A., priority 2004, published 2007)
